Reference: ChEMBL document CHEMBL5233269, “Anticancer potential of spirocompounds in medicinal chemistry: A pentennial expedition” (Eur J Med Chem, 2021)

Tests used:
MCF7 [1] = experiment: Anticancer activity against human MCF7 cells assessed as inhibition of cell growth by MTT assay; format: functional, cell-based
HeLa [2] = experiment: Anticancer activity against human HeLa cells assessed as inhibition of cell growth by MTT assay; format: functional, cell-based
A549 [3] = experiment: Anticancer activity against human A549 cells assessed as inhibition of cell growth by MTT assay; format: functional, cell-based
LNCaP = experiment: Anticancer activity against human LNCaP cells measured after 48 hrs by MTT assay; format: functional, cell-based
MCF7 [4] = experiment: Anticancer activity against human MCF7 cells measured after 48 hrs by MTT assay; format: functional, cell-based; conditions: MCF7, 48 h
MDA-MB-231 = experiment: Anticancer activity against human MDA-MB-231 cells measured after 48 hrs by MTT assay; format: functional, cell-based; conditions: MDA-MB-231, 48 h
DU-145 = experiment: Anticancer activity against human DU-145 cells measured after 48 hrs by MTT assay; format: functional, cell-based; conditions: DU-145, 48 h
Ishikawa = experiment: Anticancer activity against human Ishikawa cells measured after 48 hrs by MTT assay; format: functional, cell-based
L02 = experiment: Antiproliferative activity against human L02 cells by MTT assay; format: functional, cell-based
HepG2 [5] = experiment: Antiproliferative activity against human HepG2 cells by MTT assay; format: functional, cell-based
HCT-116 = experiment: Cytotoxicity against human HCT-116 cells incubated overnight by MTT assay; format: functional, cell-based
HepG2 [6] = experiment: Cytotoxicity against human HepG2 cells incubated overnight by MTT assay; format: functional, cell-based
[7] = Inhibition of cell proliferation in human MCF-10A cells at 50 uM by MTT colorimetric cell viability assay relative to control; format: toxicity, cell-based
MCF7 [8] = experiment: Inhibition of cell proliferation in human MCF7 cells; format: functional, cell-based
[9] = target: T1, Amine oxidase [flavin-containing] A (Rattus norvegicus, UniProt P21396); experiment: Inhibition of rat brain MAO-A relative to control; format: tissue-based
T1 sequence (P21396 whole entry): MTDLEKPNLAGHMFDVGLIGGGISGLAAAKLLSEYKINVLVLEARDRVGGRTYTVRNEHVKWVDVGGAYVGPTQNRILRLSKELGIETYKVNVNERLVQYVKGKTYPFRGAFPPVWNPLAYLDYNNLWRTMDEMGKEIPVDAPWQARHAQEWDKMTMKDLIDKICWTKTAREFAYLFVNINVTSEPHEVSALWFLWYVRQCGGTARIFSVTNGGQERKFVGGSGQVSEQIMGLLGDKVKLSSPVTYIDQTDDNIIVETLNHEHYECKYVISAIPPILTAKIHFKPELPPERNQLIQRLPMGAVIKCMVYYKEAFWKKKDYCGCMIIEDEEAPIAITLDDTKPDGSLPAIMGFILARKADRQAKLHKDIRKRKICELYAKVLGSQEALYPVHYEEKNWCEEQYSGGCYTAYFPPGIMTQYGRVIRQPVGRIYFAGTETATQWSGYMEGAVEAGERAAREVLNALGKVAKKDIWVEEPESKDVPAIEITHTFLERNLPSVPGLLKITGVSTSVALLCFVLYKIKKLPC

Sarcoma-180 = experiment: Antitumor activity against mouse Sarcoma-180 xenografted in mouse model assessed tumor growth inhibition relative to control; format: functional; set-up: scale not given: the % may be the effect or the level left
Ehrlich = experiment: Antitumor activity against mouse Ehrlich ascites carcinoma xenografted in mouse model assessed tumor growth inhibition relative to control; format: functional; set-up: scale not given: the % may be the effect or the level left
HepG2 [10] = experiment: Anticancer activity against human HepG2 cells at 200 microg/ml measured after 48 hrs relative to control; format: functional
4T1 = experiment: Anticancer activity against mouse 4T1 cells at 200 microg/ml measured after 48 hrs relative to control; format: functional
MCF7 [11] = experiment: Anticancer activity against human MCF7 cells at 10 uM by MTT assay relative to control; format: functional
SW480 = experiment: Antiproliferative activity against human SW480 cells measured after 48 hrs by MTT assay; format: functional, cell-based; conditions: SW480, 48 h
HeLa [12] = experiment: Antiproliferative activity against human HeLa cells measured after 48 hrs by MTT assay; format: functional, cell-based
A549 [13] = experiment: Antiproliferative activity against human A549 cells measured after 48 hrs by MTT assay; format: functional, cell-based; conditions: A549, 48 h
[14] = Antiproliferative activity against human […] cells measured after 48 hrs by MTT assay; format: functional, cell-based
MCF7 [15] = experiment: Antiproliferative activity against human MCF7 cells measured after 48 hrs by MTT assay; format: functional, cell-based; conditions: MCF7, 48 h
HL-60 = experiment: Antiproliferative activity against human HL-60 cells measured after 48 hrs by MTT assay; format: functional, cell-based; conditions: HL-60, 48 h
HepG2 [16] = experiment: Antiproliferative activity against human HepG2 cells measured after 48 hrs by MTT assay; format: functional, cell-based; conditions: HepG2, 48 h
HT-29 = experiment: Antiproliferative activity against human HT-29 cells measured after 48 hrs by MTT assay; format: functional, cell-based; conditions: HT-29, 48 h
MCF7 [17] = experiment: Antiproliferative activity against human MCF7 cells assessed as inhibition of cell viability; format: functional, cell-based
K562 = experiment: Antiproliferative activity against human K562 cells assessed as inhibition of cell viability; format: functional, cell-based
HeLa [18] = experiment: Cytotoxicity against human HeLa cells incubated for 24 hrs by MTT assay; format: functional, cell-based
HeLa [19] = experiment: Cytotoxicity against human HeLa cells incubated for 48 hrs by MTT assay; format: functional, cell-based
MCF7 [20] = experiment: Anticancer activity against human MCF7 cells assessed as reduction of cell growth; format: functional, cell-based
[21] = Anticancer activity against human MCF-10A cells assessed as reduction of cell growth; format: toxicity, cell-based
A-431 = experiment: Anticancer activity against human A-431 cells; format: functional, cell-based
PC-3 = experiment: Anticancer activity against human PC-3 cells assessed as reduction of cell growth; format: functional, cell-based
SMMC-7721 = experiment: Cytotoxicity against human SMMC-7721 cells assessed as inhibition of tumor cell proliferation incubated for 72 hrs by MTT assay; format: functional, cell-based; conditions: SMMC-7721, 72 h
MGC-803 = experiment: Cytotoxicity against human MGC-803 cells assessed as inhibition of tumor cell proliferation incubated for 72 hrs by MTT assay; format: functional, cell-based; conditions: MGC-803, 72 h
A549 [22] = experiment: Cytotoxicity against human A549 cells assessed as inhibition of tumor cell proliferation incubated for 72 hrs by MTT assay; format: functional, cell-based; conditions: A549, 72 h

Structure (SMILES): O=C1C2=C(c3ccccc31)N(c1ccc(N3CCOCC3)c(F)c1)C1=C(C(=O)c3ccccc31)C21C(=O)Nc2ccccc21
- IC50 (MCF7 [1]): 6.47 µM
- IC50 (HeLa [2]): 9.14 µM
- IC50 (A549 [3]): 17.8 µM

Structure (SMILES): O=C1NC2(C3=C(C(=O)C4C=CC=CC4C3=O)c3ccccc32)c2ccccc21 (stereo not drawn)
- IC50 (LNCaP): 0.67 µM
- IC50 (MCF7 [4]): 0.82 µM
- IC50 (MDA-MB-231): 6.88 µM
- IC50 (DU-145): 2.18 µM
- IC50 (Ishikawa): 1.9 µM

Structure (SMILES): O=C1C(=O)C2C(N=C3N=NNN3C23C(=O)Nc2c(C(F)(F)F)cccc23)c2ccccc21 (stereo not drawn)
- IC50 (L02): 49.9 µM
- IC50 (HepG2 [5]): 7.9 µM

Structure (SMILES): O=C1C(=O)C2C(N=C3N=NNN3C23C(=O)Nc2c(Cl)cccc23)c2ccccc21 (stereo not drawn)
- IC50 (L02): 49.5 µM
- IC50 (HepG2 [5]): 3.03 µM

Structure (SMILES): O=C(/C=C/c1ccc(Br)cc1)[C@H]1[C@H](c2ccc(Br)cc2)C2CSCN2[C@]12C(=O)Nc1ccccc12 (stereo partly drawn)
- IC50 (HCT-116): 3 µM
- IC50 (HepG2 [6]): 0.8 µM

Structure (SMILES): O=C1Nc2ccc(Br)cc2C12c1c([nH]c(=O)[nH]c1=O)N(c1ccc(N3CCOCC3)c(F)c1)c1[nH]c(=O)[nH]c(=O)c12
- IC50 (MCF7 [1]): 23 µM
- IC50 (HeLa [2]): 6.81 µM
- IC50 (A549 [3]): 25.6 µM

Structure (SMILES): O=C1Nc2ccccc2C12CCNC2c1cccc(F)c1 (stereo not drawn)
- inhibition at 50 µM [7]: 4.48%
- EC50 (MCF7 [8]): 6 µM

Structure (SMILES): CCn1c(SCc2ccc(Cl)cc2)nc2c(c1=O)C1(CCCCC1)Cc1ccccc1-2
- inhibition (INH) [9]: 50%
- Activity (Sarcoma-180): 40%
- Activity (Ehrlich): 56%

Structure (SMILES): O=C1NC2(C3=C(C(=O)C4C=CC=CC4C3=O)c3cc(Cl)ccc32)c2ccccc21 (stereo not drawn)
- IC50 (LNCaP): 5.34 µM
- IC50 (MCF7 [4]): 5.11 µM
- IC50 (MDA-MB-231): 17.6 µM
- IC50 (DU-145): 1.68 µM
- IC50 (Ishikawa): 1.39 µM

Structure (SMILES): Cc1ccc2c(c1)[C@]1(C(=O)N2)[C@@H](C(=O)c2ccccc2)[C@]2(C(=O)Nc3ccccc32)[C@@H]2c3ccccc3CCN21
- inhibition at 200 µg/mL (HepG2 [10]): 66.7%
- inhibition at 200 µg/mL (4T1): 20.8%

Structure (SMILES): CC(=O)N1C(=O)C2(C(C#N)=C(N)Oc3n[nH]c(C)c32)c2ccccc21 (stereo not drawn)
- inhibition at 10 µM (MCF7 [11]): 26.5%

Structure (SMILES): CC(C)CCC[C@@H](C)[C@@H]1CCC2C3C[C@@]4(N=C5C=CC=CN5/C4=N\c4ccccc4)C4C[C@@H](Cl)CC[C@]4(C)C3CC[C@@]21C (stereo partly drawn)
- IC50 (SW480): 3.42 µM
- IC50 (HeLa [12]): 5.41 µM
- IC50 (A549 [13]): 3.09 µM
- IC50 [14]: 3.17 µM
- IC50 (MCF7 [15]): 3.93 µM
- IC50 (HL-60): 2.62 µM
- IC50 (HepG2 [16]): 5.32 µM
- IC50 (HT-29): 2.18 µM

Structure (SMILES): COc1ccc(/C=C2\CCCC3(C2=O)[C@@H]2CCCN2[C@@]2(C(=O)Nc4ccccc42)[C@H]3c2ccc(OC)cc2)cc1 (stereo partly drawn)
- IC50 (MCF7 [17]): 18.6 µM
- IC50 (K562): 13.4 µM

Structure (SMILES): Cc1ccc(C(=O)[C@H]2[C@]3(C(=O)Nc4ccc(F)cc43)[C@@H]3c4ccccc4CCN3[C@@]23C(=O)Nc2ccc(Cl)cc23)cc1
- inhibition at 200 µg/mL (HepG2 [10]): 73.5%
- inhibition at 200 µg/mL (4T1): 33.3%

Structure (SMILES): O=C(/C=C/c1cccc(Br)c1)[C@H]1[C@H](c2cccc(Br)c2)C2CSCN2[C@]12C(=O)Nc1cc(Br)c(Br)cc12 (stereo partly drawn)
- IC50 (HCT-116): 1.57 µM
- IC50 (HepG2 [6]): 0.9 µM

Structure (SMILES): O=C1NC2(C3=C(C(=O)C4C=CC=CC4C3=O)c3ccccc32)c2cc(Cl)c(Cl)cc21 (stereo not drawn)
- IC50 (LNCaP): 1.1 µM
- IC50 (MCF7 [4]): 1.02 µM
- IC50 (MDA-MB-231): 3.01 µM
- IC50 (DU-145): 2.13 µM
- IC50 (Ishikawa): 0.75 µM

Structure (SMILES): O=C(c1ccc(F)cc1)C1C(C(=O)c2ccc(F)cc2)C12C(=O)Nc1ccccc12 (stereo not drawn)
- IC50 (HeLa [18]): 11.2 µM
- IC50 (HeLa [19]): 6.25 µM

Structure (SMILES): CC1(C)CC(=O)C2C(C1)N(c1ccccn1)C(=O)C21c2ccccc2NC2C(=O)CC(C)(C)CC21 (stereo not drawn)
- IC50 (MCF7 [20]): 9.88 µM
- IC50 [21]: 34.6 µM
- IC50 (A-431): 42.4 µM
- IC50 (PC-3): 73.1 µM

Structure (SMILES): C[C@]12CC[C@H](O)CC1=CCC1C2CC[C@@]2(C)C1CC[C@@H]2C1=CC2(C(=O)N(Cc3ccc(Cl)c(Cl)c3)c3ccccc32)C(C#N)=C(N)N1 (stereo partly drawn)
- IC50 (SMMC-7721): > 128 µM
- IC50 (MGC-803): > 128 µM
- IC50 (A549 [22]): > 128 µM
